From article PMC8067737, “Synthesis and Biological Evaluation of Coumarin-Linked 4-Anilinomethyl-1,2,3-Triazoles as Potent Inhibitors of Carbonic Anhydrases IX and XIII Involved in Tumorigenesis” (Metabolites, 2021) come the findings set out here.

Where two headings read alike, the source gives them in different places.

Data set [1] deals with hCA II (Homo sapiens, UniProt P00918). Put plainly: CA catalyzed CO2 hydration, stopped flow assay, hCA II.
Excerpt: (§1) An SX.18V-R Applied Photophysics (Oxford, UK) stopped flow instrument has been used to assay the CA catalyzed CO2 hydration activity [26]. […] The inhibition constants were obtained by non-linear least squares methods using the Cheng-Prusoff equation, as reported earlier, and represent the mean from at least three different determinations.
Data set [2] has as its target hCA I (Homo sapiens, UniProt P00915). Put plainly: CA catalyzed CO2 hydration, stopped flow assay, hCA I.
Excerpt: as §1
The target in data set [3] is hCA IX (Homo sapiens, UniProt Q16790). Put plainly: CA catalyzed CO2 hydration, stopped flow assay, hCA IX. The following applies: recombinant enzyme, stopped flow technique, mean from 3 different assays, errors ±5–10%.
Excerpt: as §1
In data set [4] the target is hCA XIII (Homo sapiens, UniProt Q8N1Q1). Briefly: CA catalyzed CO2 hydration, stopped flow assay, hCA XIII. The following applies: Ki (nM) hCA XIII, recombinant enzyme; stopped flow technique; mean from 3 different assays, errors ±5–10%.
Sequence of hCA XIII (Q8N1Q1 whole entry): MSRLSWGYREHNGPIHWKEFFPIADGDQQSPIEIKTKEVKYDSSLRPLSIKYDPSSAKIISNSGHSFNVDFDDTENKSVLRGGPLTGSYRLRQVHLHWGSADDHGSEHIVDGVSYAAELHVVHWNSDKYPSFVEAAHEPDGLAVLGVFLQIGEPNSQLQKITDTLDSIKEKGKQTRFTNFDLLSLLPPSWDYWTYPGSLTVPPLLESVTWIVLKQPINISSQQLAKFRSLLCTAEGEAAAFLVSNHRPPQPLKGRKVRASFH
Excerpt: as §1

Sequence of hCA I (P00915 whole entry): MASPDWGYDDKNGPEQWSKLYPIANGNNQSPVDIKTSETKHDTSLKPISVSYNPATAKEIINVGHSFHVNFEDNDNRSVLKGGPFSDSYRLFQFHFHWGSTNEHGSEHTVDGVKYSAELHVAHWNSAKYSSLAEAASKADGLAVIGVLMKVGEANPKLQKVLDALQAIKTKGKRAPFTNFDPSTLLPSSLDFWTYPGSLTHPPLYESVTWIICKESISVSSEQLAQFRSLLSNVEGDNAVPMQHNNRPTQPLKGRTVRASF

The term melting point denotes the temperature of the solid-liquid transition. By Ki is commonly meant the equilibrium dissociation constant of an inhibitor or competing ligand from its target. The molecule `Cc1ccc(NCc2cn(-c3ccc4oc(=O)ccc4c3)nn2)cc1` [Compound 6a, 6-(4-((p-tolylamino)methyl)-1H-1,2,3-triazol-1-yl)-2H-chromen-2-one] showed a melting point of 150 to 152 °C. Further, the Ki in data set [1] is above 50000 nM. In data set [2], this molecule yielded a Ki above 50000 nM. Moreover, the Ki in data set [3] (Ki (nM) hCA IX) was found to be 48.4 nM. Besides, the Ki in data set [4] worked out at 92.6 nM.
With `O=c1ccc2cc(-n3cc(CNc4ccccc4)nn3)ccc2o1` [Compound 6b, 6-(4-((phenylamino)methyl)-1H-1,2,3-triazol-1-yl)-2H-chromen-2-one], the melting point lay in the range of 159 to 161 °C. The molecule also showed a Ki in data set [1] above 50000 nM. The molecule further registered an inhibitory constant (Ki) in data set [2] above 50000 nM. Besides, the Ki in data set [3] (Ki (nM) hCA IX) came to 60.8 nM. For the same molecule, the inhibitory constant (Ki) in data set [4] was found to be 90.1 nM.
Consider `COc1ccc(NCc2cn(-c3ccc4oc(=O)ccc4c3)nn2)cc1` [Compound 6c, 6-(4-(((4-methoxyphenyl)amino)methyl)-1H-1,2,3-triazol-1-yl)-2H-chromen-2-one], for which the melting point fell in the range of 140 to 142 °C. This molecule had a Ki in data set [1] above 50000 nM. Moreover, in data set [2], the inhibition constant (Ki) was above 50000 nM. The inhibition constant Ki in data set [3] (Ki (nM) hCA IX) came out at 73.3 nM. The Ki in data set [4] turned out to be 950 nM.
Take `O=c1ccc2cc(-n3cc(CNc4ccc(Cl)cc4)nn3)ccc2o1` [Compound 6d, 6-(4-(((4-chlorophenyl)amino)methyl)-1H-1,2,3-triazol-1-yl)-2H-chromen-2-one]: the melting point lay in the range of 136 to 138 °C. The molecule also had a Ki in data set [1] above 50000 nM. This molecule gave a Ki in data set [2] above 50000 nM. Also, in data set [3] (Ki (nM) hCA IX), the Ki was 152 nM. In addition, the Ki in data set [4] was found to be 898 nM.
`O=c1ccc2cc(-n3cc(CNc4ccc(Br)cc4)nn3)ccc2o1` [Compound 6e, 6-(4-(((4-bromophenyl)amino)methyl)-1H-1,2,3-triazol-1-yl)-2H-chromen-2-one]: the Ki in data set [1] is above 50000 nM; in data set [2], above 50000 nM; in data set [3] (Ki (nM) hCA IX) it was below 50 nM; in data set [3] (read-out: Ki (nM) hCA IX), 36.3 nM; in data set [4] it was 883 nM.
In turn, `CC(C)c1ccc(NCc2cn(-c3ccc4oc(=O)ccc4c3)nn2)cc1` [Compound 6f, 6-(4-(((4-isopropylphenyl)amino)methyl)-1H-1,2,3-triazol-1-yl)-2H-chromen-2-one] had a melting point of 152 to 155 °C. In data set [1], the Ki is above 50000 nM. The molecule further displayed a Ki in data set [2] above 50000 nM. Besides, the Ki in data set [3] (Ki (nM) hCA IX) worked out at 45 nM. Moreover, the inhibition constant (Ki) in data set [4] was found to be 8150 nM.
On to `Cc1cc(C)c(NCc2cn(-c3ccc4oc(=O)ccc4c3)nn2)c(C)c1` [Compound 6g, 6-(4-((mesitylamino)methyl)-1H-1,2,3-triazol-1-yl)-2H-chromen-2-one], for which the melting point is 157 to 159 °C. The Ki in data set [1] was above 50000 nM. For the same molecule, in data set [2], the Ki was above 50000 nM. The Ki in data set [3] (Ki (nM) hCA IX) was 64.8 nM. The Ki in data set [4] was determined as 903 nM.
`O=c1ccc2cc(-n3cc(CNc4ccc(Oc5ccccc5)cc4)nn3)ccc2o1` [Compound 6h, 6-(4-(((4-phenoxyphenyl)amino)methyl)-1H-1,2,3-triazol-1-yl)-2H-chromen-2-one]: the melting point was 172 to 174 °C. Further, in data set [1], the Ki is above 50000 nM. Further, in data set [2], the Ki is above 50000 nM. The Ki in data set [3] (Ki (nM) hCA IX) was found to be 73 nM. Also, the Ki in data set [4] is 905 nM.
As for `O=c1ccc2cc(-n3cc(CNc4cccc([N+](=O)[O-])c4)nn3)ccc2o1` [Compound 6i, 6-(4-(((3-nitrophenyl)amino)methyl)-1H-1,2,3-triazol-1-yl)-2H-chromen-2-one], the melting point is 230 to 234 °C. Besides, the Ki in data set [1] was above 50000 nM. In addition, the Ki in data set [2] is above 50000 nM. The Ki in data set [3] (Ki (nM) hCA IX) stood at 85.7 nM. In data set [4], the Ki was 896 nM.
Molecule `O=c1ccc2cc(-n3cc(CNc4cccc(Br)c4)nn3)ccc2o1` [Compound 6j, 6-(4-(((3-bromophenyl)amino)methyl)-1H-1,2,3-triazol-1-yl)-2H-chromen-2-one] returned a melting point of 133 to 136 °C. Further, in data set [1], the Ki is above 50000 nM. The Ki in data set [2] was above 50000 nM. For the same molecule, the inhibition constant Ki in data set [3] (Ki (nM) hCA IX) worked out at 305 nM. Besides, the inhibition constant (Ki) in data set [4] stood at 91.8 nM.
As for `O=c1ccc2cc(-n3cc(CNc4cccc(C(F)(F)F)c4)nn3)ccc2o1` [Compound 6k], the melting point was in the range of 246 to 248 °C. The molecule also came in with an inhibition constant Ki in data set [1] above 50000 nM. Moreover, the Ki in data set [2] is above 50000 nM. Besides, in data set [3] (Ki (nM) hCA IX), the Ki is 69.1 nM. Also, the Ki in data set [4] was determined as 6430 nM.
`O=c1ccc2cc(-n3cc(CNc4ccc(F)cc4)nn3)ccc2o1` [Compound 6l, 6-(4-(((4-fluorophenyl)amino)methyl)-1H-1,2,3-triazol-1-yl)-2H-chromen-2-one]: the melting point was in the range of 210 to 212 °C. This molecule also gave a Ki in data set [1] above 50000 nM. In data set [2], this molecule returned a Ki above 50000 nM. Also, the Ki in data set [3] (Ki (nM) hCA IX) came out at 86.1 nM. The Ki in data set [4] came out at 840 nM.
`Cc1cccc(NCc2cn(-c3ccc4oc(=O)ccc4c3)nn2)c1` [Compound 6m, 6-(4-((m-tolylamino)methyl)-1H-1,2,3-triazol-1-yl)-2H-chromen-2-one] came in with a melting point of 220 to 223 °C. Moreover, the inhibitory constant (Ki) in data set [1] was above 50000 nM. This molecule came in with a Ki in data set [2] above 50000 nM. In addition, the Ki in data set [3] (Ki (nM) hCA IX) stood at 80.1 nM. In data set [4], the inhibition constant (Ki) amounted to 795 nM.
In turn, `Cc1cc(C)cc(NCc2cn(-c3ccc4oc(=O)ccc4c3)nn2)c1` [Compound 6n, 6-(4-(((3,5-dimethylphenyl)amino)methyl)-1H-1,2,3-triazol-1-yl)-2H-chromen-2-one] came in with a melting point of 191 to 194 °C. Moreover, in data set [1], the Ki is above 50000 nM. Further, the Ki in data set [2] was above 50000 nM. Moreover, in data set [3] (Ki (nM) hCA IX), the Ki stood at 89.3 nM. In data set [4], the Ki was found to be 703 nM.
`O=c1ccc2cc(-n3cc(CNc4cccc(Cl)c4)nn3)ccc2o1` [Compound 6o, 6-(4-(((3-chlorophenyl)amino)methyl)-1H-1,2,3-triazol-1-yl)-2H-chromen-2-one] came in with a melting point of 134 to 137 °C. In addition, the Ki in data set [1] was above 50000 nM. Further, the Ki in data set [2] is above 50000 nM. Moreover, in data set [3] (Ki (nM) hCA IX), the Ki is 92.7 nM. Further, in data set [4], the inhibitory constant (Ki) was 95.4 nM.
Consider `O=c1ccc2cc(-n3cc(CNc4ccccc4I)nn3)ccc2o1` [Compound 6p, 6-(4-(((2-iodophenyl)amino)methyl)-1H-1,2,3-triazol-1-yl)-2H-chromen-2-one], for which the melting point fell in the range of 165 to 167 °C. For the same molecule, the Ki in data set [1] was above 50000 nM. Also, in data set [2], the inhibition constant (Ki) is above 50000 nM. Also, in data set [3] (Ki (nM) hCA IX), the inhibitory constant (Ki) was determined as 574 nM. In data set [4], the Ki was found to be 594 nM.
In turn, `O=c1ccc2cc(-n3cc(CNc4ccc(Cl)cc4[N+](=O)[O-])nn3)ccc2o1` [Compound 6q, 6-(4-(((4-chloro-2-nitrophenyl)amino)methyl)-1H-1,2,3-triazol-1-yl)-2H-chromen-2-one] had a melting point of 213 to 215 °C. The same molecule showed an inhibitory constant (Ki) in data set [1] above 50000 nM. In addition, the Ki in data set [2] was above 50000 nM. Further, the Ki in data set [3] (Ki (nM) hCA IX) was 96.4 nM. Moreover, the Ki in data set [4] worked out at 96.7 nM.
`Cc1cccc(NCc2cn(-c3ccc4oc(=O)ccc4c3)nn2)c1C` [Compound 6r, 6-(4-(((2,3-dimethylphenyl)amino)methyl)-1H-1,2,3-triazol-1-yl)-2H-chromen-2-one] gave a melting point of 220 to 222 °C. In data set [1], this molecule displayed a Ki above 50000 nM. Also, the Ki in data set [2] was above 50000 nM. In addition, the Ki in data set [3] (Ki (nM) hCA IX) amounted to 462 nM. Moreover, the inhibitory constant (Ki) in data set [4] was determined as 550 nM.
Molecule `O=c1ccc2cc(-n3cc(CNc4cc(F)cc(F)c4)nn3)ccc2o1` [Compound 6s, 6-(4-(((3,5-difluorophenyl)amino)methyl)-1H-1,2,3-triazol-1-yl)-2H-chromen-2-one] displayed a melting point of 204 to 206 °C. For the same molecule, the Ki in data set [1] was above 50000 nM. The same molecule returned a Ki in data set [2] above 50000 nM. Besides, in data set [3] (Ki (nM) hCA IX), the Ki stood at 90.9 nM. Further, the Ki in data set [4] came out at 664 nM.
In turn, `O=c1ccc2cc(-n3cc(CNc4ccccc4F)nn3)ccc2o1` [Compound 6t, 6-(4-(((2-fluorophenyl)amino)methyl)-1H-1,2,3-triazol-1-yl)-2H-chromen-2-one] registered a melting point of 230 to 232 °C. Moreover, the Ki in data set [1] is above 50000 nM. This molecule registered an inhibition constant (Ki) in data set [2] above 50000 nM. For the same molecule, the Ki in data set [3] (Ki (nM) hCA IX) worked out at 643 nM. In data set [4], the inhibition constant Ki was determined as 6030 nM.
